From patent publication US20030129224A1, “Lipid carrier compositions and methods for improved drug retention” (priority 2001, published 2003)
Values belong to the molecule of their own block, whether it stands above or below them.

Columns and labels:
[1] = Freeze/thaw stability of DSPC/DSPG liposomes (drug-to-lipid ratio and size) at -20 or -70 C for 24 hours; assay type: physicochemical; conditions: 0-20 mole % cholesterol, 250 mM CuSO4 internal, frozen at -20 C and -70 C for 24 hours
Description: FUDR and irinotecan were loaded into cholesterol-free liposomes containing a low osmolarity internal solution and drug retention and liposome size were measured prior to and after freezing. DSPC/DSPG liposomes containing 0-20 mole % cholesterol, 20 mole % DSPG and passively entrapped FUDR were prepared as described previously and hydrated in 250 mM CuSO4 (<500 mOsm/kg). The MLVs were extruded at 70° C. as detailed above and buffered exchanged into saline and then into 300 mM sucrose, 20 mM Hepes, 30 mM EDTA (SHE), pH 7.4 using a hand-held tangential flow column. The sample was then further exchanged into 300 mM sucrose, 20 mM Hepes, pH 7.4 to remove residual EDTA. The liposomes were subsequently loaded with irinotecan at a drug-to-lipid mole ratio of 0.1:1 by mixing the two solutions at 50° C. for five minutes. The dual-loaded liposomes were then buffered exchanged into HBS using tangential flow to remove any unencapsulated drug.
The influence of freezing on liposome stability was determined by freezing the liposomes at either −20° C. or −70° C. for 24 hours. […] Lipid and FUDR levels were quantified using liquid scintillation and absorbance at 370 nm was used to determine irinotecan concentration. Particle sizing of the liposomes was also determined prior to and after freezing using quasi-elastic light scattering.

[2] = Idarubicin retention in liposomes in blood after intravenous injection; assay type: in vivo, Balb/c mice; conditions: cholesterol-free DSPC/DSPE-PEG2000 (95:5); 300 mM citrate (>500 mOsm/kg) in relation to 100 and 150 mM (<500 mOsm/kg); i.v.; 0.5-24 h
Description: DSPC/DSPE-PEG2000 (95:5 mole ratio) liposomes containing the non-exchangeable marker ^3H-CHE were prepared as described in Example 1, except that lipid films were hydrated with 100, 150, 200, 250 or 300 mM citrate, pH 4.0 (corresponding to osmolarity levels of about 200, 300, 400, 500 or 600 mOsm/kg, respectively).
DSPC/DSPE-PEG2000 (95:5 mole ratio) liposomes prepared with 100, 150 and 300 mM citrate were also loaded with idarubicin at a drug to lipid mole ratio of 0.25:1. Loading was facilitated by incubating the drug and liposomes at 37° C. for 60 minutes. Liposomes were administered to Balb/c mice as indicated and blood samples were removed by cardiac puncture at 0.5, 1, 2, 4 and 24-hours post administration (3 mice per time point). Idarubicin concentration was quantitated using fluorescence intensity at 485 nm as the excitation wavelength and 535 nm as an emission wavelength and using an absorbance wavelength of 482 nm.

[3] = Vincristine retention in liposomes in blood after intravenous injection of Balb/c mice; assay type: in vivo; conditions: i.v., 1, 4, 24 h
Description: Solutions of lipids in chloroform were combined to give a 95:5 molar ratio of DSPC/DSPE-PEG2000 or a 55:45 molar ratio of DSPC/Cholesterol, with trace amounts of ^14C-cholesteryl hexadecyl ether (^14C-CHE). The resulting mixtures were dried under a stream of nitrogen gas and placed in a vacuum pump overnight. The samples were hydrated at 70° C. with either 300 mM citrate, pH 4.0 (about 600 milliosmoles/kg (mOsm/kg)) or 150 mM citrate buffer, pH 4.0 (about 300 mOsm/kg) and passed through an extrusion apparatus (Northern Lipids Inc., Vancouver, BC) ten times with two 100 nm pore size polycarbonate filters at 70° C. Average liposome size was determined by quasi-elastic light scattering using a NICOMP 370 submicron particle sizer operating at a wavelength of 632.8 nm. The resulting liposomes were applied to a Sephadex G50 column equilibrated with HBS (20 mM HEPES, 150 mM NaCl, about 320 mOsm/kg), pH 7.45 to exchange the external liposomal buffer. […]
Vincristine-containing liposomes were administered intravenously to Balb/c mice at a lipid dose of 165 μmoles/kg in a final volume of 200 μL immediately after preparation (within 1-2 hrs). […] Lipid and vincristine levels were quantified by liquid scintillation counting and the values were reported as the mean±standard deviation (SD).

[4] = Daunorubicin retention in liposomes in blood after intravenous injection (time course); assay type: in vivo, Balb/c mice; conditions: low-cholesterol liposomes DSPC/DSPE-PEG2000 (95:5); citrate 600 mOsm/kg (300 mM) in relation to 300 mOsm/kg (150 mM); i.v.; 1, 4, 24 h
Description: DSPC/DSPE-PEG2000 liposomes (95:5 mole ratio) containing 150 or 300 mM citrate (300 or 600 mOsm/kg), pH 4 and DSPC/Cholesterol (55:45 mole ratio) and DSPC/Cholesterol/DSPE-PEG2000 (50:45:5 mole ratio) liposomes containing 150 mM citrate, pH 4 were prepared as described in Example 1. Liposomes were subsequently combined with daunorubicin at a 0.2:1 drug to lipid mole ratio. To facilitate drug loading, the mixtures were incubated at 40° C. for 60 minutes.
The resulting daunorubicin-containing liposomes were administered to Balb/c female mice at a lipid dose of 165 μmoles/kg as detailed above. Blood samples were removed at 1, 4 and 24 hours post administration by cardiac puncture (3 mice per time point). Lipid levels were determined by liquid scintillation counting. Daunorubicin was extracted from plasma samples and quantified as follows: a defined volume of plasma was adjusted to 200 μL with distilled water followed by addition of 600 μL of distilled water, 100 μL of 10% SDS and 100 μL of 10 mM H2SO4. This solution was mixed and 2 mLs of 1:1 isopropanol/chloroform was added followed by vortexing. […] The bottom organic layer was removed and assayed for fluorescence intensity at 500 nm as the excitation wavelength (2.5 nm bandpass) and 550 nm as an emission wavelength (10 nm bandpass) and using an absorbance wavelength of 480 nm.

[5] = Daunorubicin retention 4 hours after intravenous injection, varying internal citrate; assay type: in vivo, Balb/c mice; conditions: DSPC/DSPE-PEG2000 (95:5); 100, 150 and 200 mM internal citrate (about 200, 300, 400 mOsm/kg), versus 250 and 300 mM; 4 hours after i.v.
Description: Daunorubicin was loaded at a 0.2:1 drug-to-lipid mole ratio with the methods detailed above into each of the five liposomal formulations. The resulting liposomes were administered to female Balb/c mice at a lipid dose of 165 μmoles/kg in a final volume of 200 μL immediately after preparation (within 1-2 hrs). Blood samples were removed 4 hours after administration by cardiac puncture (3 mice per time point). Lipid and daunorubicin levels were determined as described previously and percent initial drug-to-lipid ratio was reported as the mean±SD.

retention of irinotecan after freezing (drug-to-lipid ratio) [1]: effectively retained
Compound: CCc1c2c(nc3ccc(OC(=O)N4CCC(N5CCCCC5)CC4)cc13)-c1cc3c(c(=O)n1C2)COC(=O)[C@]3(O)CC [irinotecan]

idarubicin retention (idarubicin-to-lipid mole ratio in the blood) [2]: significantly decreased
Compound: CC(=O)[C@]1(O)Cc2c(O)c3c(c(O)c2[C@@H](O[C@H]2C[C@H](N)[C@H](O)[C@H](C)O2)C1)C(=O)c1ccccc1C3=O [idarubicin]

retention of vincristine (percent initial vincristine-to-lipid weight ratio in the blood) ([3]; low-cholesterol liposomes DSPC/DSPE-PEG2000 (95:5), internal citrate 300 mOsm/kg (150 mM) compared to 600 mOsm/kg (300 mM)): significantly enhanced
Compound: CC[C@]1(O)C[C@H]2CN(CCc3c([nH]c4ccccc34)[C@@](C(=O)OC)(c3cc4c(cc3OC)N(C=O)[C@H]3[C@@](O)(C(=O)OC)[C@H](OC(C)=O)[C@]5(CC)C=CCN6CC[C@]43[C@@H]65)C2)C1 [vincristine]
retention of vincristine (percent initial vincristine-to-lipid weight ratio in the blood) ([3]; cholesterol containing liposomes DSPC/cholesterol (55:45), 150 vs 300 mM citrate): independent of the osmolarity of the intraliposomal solution

daunorubicin retention (percent initial daunorubicin-to-lipid ratio remaining in the blood) [4]: compromised
retention of daunorubicin (percent initial drug-to-lipid ratio in the blood) [5]: optimal retention
Compound: COc1cccc2c1C(=O)c1c(O)c3c(c(O)c1C2=O)C[C@@](O)(C(C)=O)C[C@@H]3O[C@H]1C[C@H](N)[C@H](O)[C@H](C)O1 [daunorubicin]
